Source: patent publication US20140206657A1, “BILE ACID ANALOG TGR5 AGONISTS” (City of Hope, priority 2013, published 2014)

Tests used:
human TGR5 = biological target: T1, human TGR5 (Homo sapiens, UniProt Q8TDU6); experiment: cAMP assay, HEK293 cells stably expressing human TGR5; type: cell-based
T1 construct: expressed in transfected cells
T1 sequence (Q8TDU6 1-330): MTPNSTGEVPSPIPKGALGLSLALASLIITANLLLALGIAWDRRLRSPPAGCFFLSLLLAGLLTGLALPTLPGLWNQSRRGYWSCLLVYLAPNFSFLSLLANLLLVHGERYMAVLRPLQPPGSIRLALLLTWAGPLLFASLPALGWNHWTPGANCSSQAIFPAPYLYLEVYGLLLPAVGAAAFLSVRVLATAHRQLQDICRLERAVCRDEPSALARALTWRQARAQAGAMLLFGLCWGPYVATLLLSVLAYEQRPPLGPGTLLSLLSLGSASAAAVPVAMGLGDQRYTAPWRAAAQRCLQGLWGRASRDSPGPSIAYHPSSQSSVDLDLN
Procedure: The changes in cAMP elicited by these bile acid derivatives was determined after binding to the TGR5. […] HEK293 cells stably expressing human TGR5 were treated with increasing doses of ligand after 6 hours of stimulation, and intracellular cAMP levels were measured by luminescence. […] Data analysis to determine EC50 values was performed with GraphPad Prism software using a cAMP standard curve and sigmoidal dose-response (variable slope) equation based on dose-response curves with tested compounds.

EC50 (human TGR5) [nM]	SMILES	also measured
–	CC[C@H]1C[C@@H]2[C@H](CC[C@]3(C)[C@@H]([C@H](C)C[C@H](C)C(=O)O)CC[C@@H]23)[C@@]2(C)CC[C@@H](O)C[C@@H]12	melting point: 137.7 °C
210	C[C@H](C[C@H](C)C(=O)O)[C@H]1CC[C@H]2[C@@H]3CC[C@@H]4C[C@H](O)CC[C@]4(C)[C@H]3CC[C@]12C [compound 13, 23(S)-Methyl-3α-hydroxy-5β-cholan-24-oic acid]	–
710	CC[C@H]1[C@H](O)[C@@H]2[C@H](CC[C@]3(C)[C@@H]([C@H](C)C[C@H](C)C(=O)O)CC[C@@H]23)[C@@]2(C)CC[C@@H](O)C[C@@H]12 [compound 24, 3α,7β-Dihydroxy-23(S)-methyl-6α-ethyl-5β-cholan-24-oic acid]	–
–	CC[C@@]1(O)CC[C@@]2(C)[C@H](CC[C@@H]3[C@@H]2CC[C@]2(C)[C@@H]([C@H](C)CCC(=O)O)CC[C@@H]32)C1 [compound 26, 3β-Ethyl-3α-hydroxy-LCA]	TGR5 activity / potency, in words (SAR statements) (human TGR5; assay not named in b266 and b269, b275 belongs to the cAMP example): large loss in potency
